Read-outs that look alike come from different tables or passages of the source.
System: recombinant rabies virus 1088 strain expressing Gaussia Luciferase (GLuc) (1088/GLuc)
Format: cell-based

Row | Structure (SMILES) | IC50 (read-out: Anti-rabies activity) | IC50 (read-out: IC50)
1 | CC(C)CCN1CC2CC3CNC2(C(=O)NCc2cccc4ccccc24)C1C3CO (stereo not shown) [IB-426] | < 5 µM | 
2 | CCCCCCNC(=O)C12NCC3CC1CN(CCO)C2C3Cc1ccccc1 (stereo not shown) [IB-476] | < 5 µM | 
3 | CCCCCCNC(=O)C12NCC3CC1CN(CCO)C2C3CC(C)C (stereo not shown) [IB-477] | < 5 µM | 
4 | CCCCCCNC(=O)C12NCC3CC1CN(CCO)C2C3Cc1ccc(O)cc1 (stereo not shown) [IB-478] | 10 to 30 µM | 
5 | O=C(NCc1ccc(F)cc1)C12NCC3CC1CN(CCO)C2C3Cc1ccccc1 (stereo not shown) [IB-479] | 10 to 30 µM | 
6 | CC(C)CCN1CC2CC3CNC2(C(=O)NCc2ccc(F)cc2)C1C3Cc1ccc(O)cc1 (stereo not shown) [IB-481] | < 5 µM | 
7 | O=C(NCCc1ccccc1)C12NCC3CC1CN(CC1CCCCC1)C2C3Cc1ccccc1 (stereo not shown) [IB-484] | < 5 µM | 
8 | CCCCCCNC(=O)C12NCC3CC1CN(CCO)C2C3CCC(C)C (stereo not shown) [IB-490] | < 5 µM | 
9 | O=C(NCc1ccc(F)cc1)C12NCC3CC1CN(CCO)C2C3CCc1ccccc1 (stereo not shown) [IB-492] | < 5 µM | 
10 | CC(C)CC1C2CNC3(C(=O)NCCc4ccccc4)C(C2)CN(CC(C)C)C13 (stereo not shown) [IB-495] | < 5 µM | 
11 | CC(C)CN1CC2CC3CNC2(C(=O)NCc2ccc(F)cc2)C1C3Cc1ccc(O)cc1 (stereo not shown) [IB-498] | < 5 µM | 
12 | CC(C)CC1C2CNC3(C(=O)NCc4ccc(F)cc4)C(C2)CN(Cc2ccc(O)cc2)C13 (stereo not shown) [IB-499] | < 5 µM | 
13 | CC(C)CCC1C2CNC3(C(=O)NC(C)C)C(C2)CN(Cc2ccc(O)cc2)C13 (stereo not shown) [IB-501] | < 5 µM | 
14 | CC(C)NC(=O)C12NCC3CC1CN(Cc1ccc(O)cc1)C2C3Cc1cccc2ccccc12 (stereo not shown) [IB-502] | < 5 µM | 
15 | CC(C)CCN1CC2CC3CNC2(C(=O)NCc2ccccc2)C1C3CCC(=O)O (stereo not shown) [IB-505] | 10 to 30 µM | 
16 | CC(C)CNC(=O)C12NCC3CC1CN(CCc1ccccc1)C2C3CCC(=O)O (stereo not shown) [IB-508] | 10 to 30 µM | 
17 | CC(C)CNC(=O)C12NCC3CC1CN(CC1CCCCC1)C2C3CCC(=O)O (stereo not shown) [IB-510] | 10 to 30 µM | 
18 | O=C(O)CCN1CC2CC3CNC2(C(=O)NCc2ccc(O)cc2)C1C3CCc1ccccc1 (stereo not shown) [IB-515] | 10 to 30 µM | 
19 | O=C(O)CCN1CC2CC3CNC2(C(=O)NCc2ccc(O)cc2)C1C3Cc1cccc2ccccc12 (stereo not shown) [IB-516] | 10 to 30 µM | 
20 | CC(C)CC1C2CNC3(C(=O)NCCC(N)=O)C(C2)CN(Cc2cccc4ccccc24)C13 (stereo not shown) [IB-520] | < 5 µM | 
21 | NC(=O)CCNC(=O)C12NCC3CC1CN(Cc1cccc4ccccc14)C2C3Cc1ccc(O)cc1 (stereo not shown) [IB-521] | 10 to 30 µM | 
22 | NC(=O)CCNC(=O)C12NCC3CC1CN(CCc1ccccc1)C2C3Cc1ccccc1 (stereo not shown) [IB-707] | < 5 µM | 
23 | CC(C)CC1C2CNC3(C(=O)NCCC(N)=O)C(C2)CN(CCc2ccccc2)C13 (stereo not shown) [IB-708] | < 5 µM | 
24 | NC(=O)CCNC(=O)C12NCC3CC1CN(CC1CCCCC1)C2C3CCc1ccccc1 (stereo not shown) [IB-710] | < 5 µM | 
25 | NC(=O)CCNC(=O)C12NCC3CC1CN(Cc1ccc(F)cc1)C2C3Cc1ccccc1 (stereo not shown) [IB-712] | < 5 µM | 
26 | CC(C)CCNC(=O)C12NCC3CC1CN(CCO)C2C3Cc1ccccc1 (stereo not shown) [IB-714] | < 5 µM | 

Row | Structure (SMILES) | IC50 (read-out: Anti-rabies activity) | IC50 (read-out: IC50)
27 | CC(C)CC1C2CNC3(C(=O)NCCc4ccccc4)C(C2)CN(Cc2ccc(F)cc2)C13 (stereo not shown) [IB-725] | < 5 µM | 
28 | CC(C)CCNC(=O)C12NCC3CC1CN(CCO)C2C3Cc1cccc2ccccc12 (stereo not shown) [IB-727] | < 5 µM | 
29 | NC(=O)CCNC(=O)C12NCC3CC1CN(Cc1ccccc1)C2C3Cc1ccccc1 (stereo not shown) [IB-734] | 10 to 30 µM | 
30 | CC(C)CN1CC2CC3CNC2(C(=O)NCCC(N)=O)C1C3Cc1cccc2ccccc12 (stereo not shown) [IB-737] | 10 to 30 µM | 
31 | CC(C)CCNC(=O)C12NCC3CC1CN(Cc1ccc(O)cc1)C2C3CC(C)C (stereo not shown) [IB-739] | 10 to 30 µM | 
32 | NC(=O)CCNC(=O)C12NCC3CC1CN(Cc1ccc(O)cc1)C2C3Cc1cccc2ccccc12 (stereo not shown) [IB-743] | < 5 µM | 
33 | CC(C)CCN1CC2CC3CNC2(C(=O)NCc2ccccc2)C1C3Cc1ccc(O)cc1 (stereo not shown) [IB-749] | 10 to 30 µM | 
34 | O=C(NCc1cccc2ccccc12)C12NCC3CC1CN(Cc1cccc4ccccc14)C2C3CCc1ccccc1 (stereo not shown) [IB-804] | < 5 µM | 
35 | NC(=O)CCNC(=O)C12NCC3CC1CN(Cc1ccccc1)C2C3Cc1cccc2ccccc12 (stereo not shown) [IB-813] | < 5 µM | 
36 | O=C(NCc1ccc(F)cc1)C12NCC3CC1CN(CCO)C2C3Cc1cccc2ccccc12 (stereo not shown) [IB-831] | < 5 µM | 
37 | CC(C)CC1C2CNC3(C(=O)NCc4ccccc4)C(C2)CN(Cc2ccc(Cl)cc2)C13 (stereo not shown) [IB-864] | 5 to 10 µM | 
38 | CC(C)CC1C2CNC3(C(=O)NCc4ccccc4)C(C2)CN(Cc2cccc(Cl)c2)C13 (stereo not shown) [IB-865] | 5 to 10 µM | 
39 | COc1ccc(CN2CC3CC4CNC3(C(=O)NCc3ccccc3)C2C4CC(C)C)cc1 (stereo not shown) [IB-866] | 5 to 10 µM | 
40 | Cc1ccc(CN2CC3CC4CNC3(C(=O)NCc3ccccc3)C2C4CC(C)C)cc1 (stereo not shown) [IB-867] | 5 to 10 µM | 
41 | CC(C)CCNC(=O)C12NCC3CC1CN(CC(C)C)C2C3Cc1ccccc1 (stereo not shown) [IB-870] | 10 to 30 µM | 
42 | CC(C)CC1C2CNC3(C(=O)NCc4ccc(Cl)cc4)C(C2)CN(CC(C)C)C13 (stereo not shown) [IB-871] | 10 to 30 µM | 
43 | CC(C)CC1C2CNC3(C(=O)NCc4ccccc4)C(C2)CN(Cc2ccc(N(C)C)cc2)C13 (stereo not shown) [IB-873] | 5 to 10 µM | 
44 | CC(C)CC1C2CNC3(C(=O)NCc4ccccc4)C(C2)CN(Cc2ccc(C(C)(C)C)cc2)C13 (stereo not shown) [IB-874] | 5 to 10 µM | 
45 | CC(C)CCC1C2CNC3(C(=O)NCc4ccccc4)C(C2)CN(CC(C)C)C13 (stereo not shown) [IB-875] | 10 to 30 µM | 
46 | CC(C)CCN1CC2CC3CNC2(C(=O)NCc2ccccc2)C1C3CC(C)C (stereo not shown) [IB-876] | 10 to 30 µM | 
47 | CCOc1ccc(CN2CC3CC4CNC3(C(=O)NCc3ccccc3)C2C4CC(C)C)cc1 (stereo not shown) [IB-878] | 10 to 30 µM | 
48 | CC(C)CC1C2CNC3(C(=O)NCc4ccc5ccccc5c4)C(C2)CN(Cc2ccccc2)C13 (stereo not shown) [IB-879] | < 5 µM | 
49 | CCN1CC2CC3CN(Cc4ccc(C)cc4)C(C2CC(C)C)C31C(=O)NCc1ccccc1 (stereo not shown) [IB-880] | < 5 µM | 
50 | Cc1ccc(CN2CC3CC4CN(CC(C)C)C3(C(=O)NCc3ccccc3)C2C4CC(C)C)cc1 (stereo not shown) [IB-881] | < 5 µM | 
51 | Cc1ccc(CN2CC3CC4CN(C(=O)CC(C)C)C3(C(=O)NCc3ccccc3)C2C4CC(C)C)cc1 (stereo not shown) [IB-883] | < 5 µM | 
52 | COC(=O)N1CC2CC3CN(Cc4ccc(C)cc4)C(C2CC(C)C)C31C(=O)NCc1ccccc1 (stereo not shown) [IB-885] | 5 to 10 µM | 

Row | Structure (SMILES) | IC50 (read-out: Anti-rabies activity) | IC50 (read-out: IC50)
53 | Cc1ccc(CN2CC3CC4CN(C(=O)OCC(C)C)C3(C(=O)NCc3ccccc3)C2C4CC(C)C)cc1 (stereo not shown) [IB-886] | 5 to 10 µM | 
54 | Cc1ccc(CN2CC3CC4CN(C(=O)OCc5ccccc5)C3(C(=O)NCc3ccccc3)C2C4CC(C)C)cc1 (stereo not shown) [IB-887] | 5 to 10 µM | 
55 | Cc1ccc(CN2CC3CC4CN(C(N)=O)C3(C(=O)NCc3ccccc3)C2C4CC(C)C)cc1 (stereo not shown) [IB-888] | 10 to 30 µM | 
56 | Cc1ccc(CN2CC3CC4CN(C(=O)NCc5ccccc5)C3(C(=O)NCc3ccccc3)C2C4CC(C)C)cc1 (stereo not shown) [IB-889] | 5 to 10 µM | 
57 | CC(C)CC1C2CNC3(C(=O)NCc4cccc(O)c4)C(C2)CN(Cc2ccc(N(C)C)cc2)C13 (stereo not shown) [IB-891] | 10 to 30 µM | 
58 | CC(C)CC1C2CNC3(C(=O)NCc4ccc(O)cc4)C(C2)CN(Cc2ccc(N(C)C)cc2)C13 (stereo not shown) [IB-892] | 10 to 30 µM | 
59 | CC(C)CC1C2C3CNC1(C(=O)NCc1ccccc1)CC3CN2Cc1ccccc1 (stereo not shown) [IF-7] | 5 to 10 µM | 8.5 µM
60 | CC(C)CCN1CC2CC3(C(=O)NCc4ccccc4)NCC2C1C3Cc1ccccc1 (stereo not shown) [IF-9] | 10 to 30 µM | 15.6 µM
61 | NC(=O)CN1CC2CC3(C(=O)NCCc4ccccc4)NCC2C1C3Cc1cccc2ccccc12 (stereo not shown) [IF-90] | 10 to 30 µM | 
62 | NC(=O)CN1CC2CC3(C(=O)NCc4cccc5ccccc45)NCC2C1C3Cc1cccc2ccccc12 (stereo not shown) [IF-91] | < 5 µM | 
63 | CC(C)CCN1CC2CC3(C(=O)NC(C)C)NCC2C1C3CCCNC(=N)N (stereo not shown) [IF-214] | 10 to 30 µM | 
64 | NC(=O)CCNC(=O)C12CC3CN(CCc4ccccc4)C(C3CN1)C2CC(N)=O (stereo not shown) [IF-219] | 10 to 30 µM | 
65 | NC(=O)CC1C2C3CNC1(C(=O)NCc1cccc4ccccc14)CC3CN2CCc1ccccc1 (stereo not shown) [IF-223] | 10 to 30 µM | 
66 | CC(C)CNC(=O)C12CC3CN(Cc4cccc5ccccc45)C(C3CN1)C2CC(N)=O (stereo not shown) [IF-226] | 10 to 30 µM | 
67 | NC(=O)CC1C2C3CNC1(C(=O)NCCO)CC3CN2Cc1cccc2ccccc12 (stereo not shown) [IF-230] | 10 to 30 µM | 
68 | CC(C)CCNC(=O)C12CC3CN(CCCNC(=N)N)C(C3CN1)C2Cc1cccc2ccccc12 (stereo not shown) [IF-356] | 10 to 30 µM | 
69 | N=C(N)NCCCN1CC2CC3(C(=O)NCCc4ccccc4)NCC2C1C3Cc1ccc(O)cc1 (stereo not shown) [IF-359] | 10 to 30 µM | 
70 | O=C(O)CCNC(=O)C12CC3CN(CC4CCCCC4)C(C3CN1)C2Cc1cccc2ccccc12 (stereo not shown) [IF-416] | 10 to 30 µM | 
71 | O=C(O)CCNC(=O)C12CC3CN(Cc4ccc(F)cc4)C(C3CN1)C2Cc1cccc2ccccc12 (stereo not shown) [IF-417] | 10 to 30 µM | 
72 | O=C(O)CCC1C2C3CNC1(C(=O)NCc1cccc4ccccc14)CC3CN2CC1CCCCC1 (stereo not shown) [IF-419] | 10 to 30 µM | 
73 | CC(C)CCC1C2C3CNC1(C(=O)NCc1cccc4ccccc14)CC3CN2CCC(=O)O (stereo not shown) [IF-422] | 10 to 30 µM | 
74 | CC(C)CN1CC2CC3(C(=O)NCCC(=O)O)NCC2C1C3Cc1cccc2ccccc12 (stereo not shown) [IF-428] | 10 to 30 µM | 
75 | NC(=O)CCNC(=O)C12CC3CN(Cc4cccc5ccccc45)C(C3CN1)C2Cc1ccc(O)cc1 (stereo not shown) [IF-435] | < 5 µM | 
76 | CC(C)CCN1CC2CC3(C(=O)NCCc4ccccc4)NCC2C1C3CC(C)C (stereo not shown) [IF-437] | 10 to 30 µM | 
77 | O=C(NCCc1ccccc1)C12CC3CN(CC4CCCCC4)C(C3CN1)C2Cc1ccc(O)cc1 (stereo not shown) [IF-439] | < 5 µM | 

Source: EP4104902B1, “COMPOUNDS AND M[…] SAME” (priority 2020, dated 2021)
